Measurements taken from US20240148821A1, “PHARMACEUTICAL USE OF CYCLIC PEPTIDE COMPOUND” (CHUGAI SEIYAKU KABUSHIKI KAISHA, priority 2021, published 2024).
Numbered stars: 1 amine (or outer) side, 2 acyl side, 3 side chain; on linkers, the order of the positions; unused ones are H or OH. Bridge positions count the residues as written; N and C are the ends. Square brackets hold non-standard residues; d marks the D form. Peptide text beside a SMILES is read from it. * marks the point of attachment. hPhe(3,5-F2-4-CF3) = N[C@@H](CCc1cc(F)c(C(F)(F)F)c(F)c1)C(=O)O; hPhe(3-Cl-4-CF3) = N[C@@H](CCc1ccc(C(F)(F)F)c(Cl)c1)C(=O)O; hPhe(3-F,4-CF3) = N[C@@H](CCc1ccc(C(F)(F)F)c(F)c1)C(=O)O; NMePhe(4-CF3) = CN[C@@H](Cc1ccc(C(F)(F)F)cc1)C(=O)O; hPhe(4-CF3) = N[C@@H](CCc1ccc(C(F)(F)F)cc1)C(=O)O; NMePhe(4-Cl) = CN[C@@H](Cc1ccc(Cl)cc1)C(=O)O; NMePhe(4-Me) = CN[C@@H](Cc1ccc(C)cc1)C(=O)O; NMedβ3hAla = C[C@H](CC(=O)[*:2])N(C)[*:1]; NMeCha = CN[C@@H](CC1CCCCC1)C(=O)O; NMehLeu = CN[C@@H](CCC(C)C)C(=O)O; Hyp = O=C(O)[C@@H]1C[C@@H](O)CN1; NMeF = CN[C@@H](Cc1ccccc1)C(=O)O; NMeI = CC[C@H](C)[C@H](NC)C(=O)O; NMeD = CN[C@@H](CC(=O)O)C(=O)O; NMeL = CN[C@@H](CC(C)C)C(=O)O; NMeV = CN[C@H](C(=O)O)C(C)C; d(β3hA) = C[C@@H](N)CC(=O)O; Ac6c = NC1(C(=O)O)CCCCC1; Morpholide = C1CN(*)CCO1; NMeA = CN[C@@H](C)C(=O)O; NMeAib = CNC(C)(C)C(=O)O; Piperidide = C1CCN(*)CC1; Ac5c = NC1(C(=O)O)CCCC1; Aze = O=C(O)[C@@H]1CCN1; Alloc = C=CCOC(=O)*; Bn = c1ccc(C*)cc1; Sar = CNCC(=O)O

Experiments:
[1] = target: protein-protein interaction between Kras and SOS1 (biotin-tagged human Kras loaded with GDP, His-tagged human SOS1) (Homo sapiens (Human), UniProt P01116, G12D); experiment: Protein-protein interaction inhibition between Kras and SOS1 (KrasG12D-SOS PPI) using AlphaScreen; assay type: biochemical; conditions: AlphaScreen; biotin-tagged human Kras loaded with GDP, His-tagged human SOS1; read-out: KRAS G12D-SOS PPI IC50;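 note: kras produced in E. coli, Ni-coupled donor beads and streptavidin acceptor beads, excitation 680 nm with emission detected at 520–620 nm via singlet oxygen transfer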
[2] = system: Human pancreatic cancer cell line AsPC-1 (G12D mutation Kras); experiment: AsPC-1 cell growth inhibition (AsPC-1 CGI); assay type: cell-based; conditions: read-out: AsPC-1 cell growth inhibition, 50% growth inhibitory concentration (IC50 value); 96 hours, CellTiter-Glo, values classified in ranges
Procedure: Test compounds were serially dilated with dimethyl sulfoxide, and 200 nL was then dispensed to a U-bottom 96-well plate using Labcyte Echo. […] The cell suspension was dispensed to a. plate containing a test compound at 100 μL per well and incubated at 37° C. in a 5% carbon dioxide gas incubator. 96 hours later, 80 μL of CellTiter-Glo (Promega) was added to each well and fluorescence was measured.

Compound | IC50 [1] | IC50 [2]
CC[C@H](C)[C@@H]1NC(=O)[C@H](CC(C)C)N(C)C(=O)C[C@@H](C)NC(=O)[C@H](CC(C)C)N(C)C(=O)C2(CCCC2)NC(=O)[C@@H]2C[C@@H](OCc3ccccc3)CN2C(=O)[C@H](CCc2ccc(C(F)(F)F)c(F)c2)NC(=O)CN(C)C(=O)[C@H](CC2CCCCC2)N(C)C(=O)CN(C)C(=O)CN(C)C1=O [Compound 2116, (3S,9S,18S,21S,25R,28S,34S,36R)-36-benzyloxy-9-(cylohexylmethyl)-3-[2-[3-fluoro-4-(trifluoromethyl)phenyl]ethyl]-21,28-diisobutyl-7,10,13,16,22,25,29-heptamethyl-18-[(1S)-1-methylpropyl]spiro[1,4,7,10,13,16,19,22,26,29,32-undecazabicyclo[32.3.0]heptatriacontane-31,1′-cyclopentane]-2,5,8,11,14,17,20,23,27,30,33-undecone] (cyclo([Ac5c][NMeL][d(β3hA)][NMeL]I[Sar][Sar][NMeCha][Sar][hPhe(3-F,4-CF3)][Hyp](Bn))) | 0.11 µM | > 0.5 µM
CC[C@H](C)[C@@H]1NC(=O)[C@H](CC(C)C)N(C)C(=O)C[C@@H](C(=O)N2CCOCC2)N(C)C(=O)[C@H]([C@@H](C)CC)N(C)C(=O)C2(CCCC2)NC(=O)[C@@H]2CCCN2C(=O)[C@H](CCc2cc(F)c(C(F)(F)F)c(F)c2)NC(=O)CN(C)C(=O)[C@H](Cc2ccc(C(F)(F)F)cc2)N(C)C(=O)[C@@H]2CCN2C(=O)[C@H](C)N(C)C1=O [Compound 1362] ([NMeL]I[NMeA][Aze][NMePhe(4-CF3)][Sar][hPhe(3,5-F2-4-CF3)]P[Ac5c][NMeI][NMeD]-Morpholide; lactam N-11) | 0.00081 µM | ≤ 0.02 µM
CC[C@H](C)[C@@H]1NC(=O)[C@H](CC(C)C)N(C)C(=O)C[C@@H](C(=O)N2CCCCC2)N(C)C(=O)[C@H](C(C)C)N(C)C(=O)C2(CCCC2)NC(=O)[C@@H]2CCCN2C(=O)[C@H](CCc2ccc(C(F)(F)F)c(Cl)c2)NC(=O)CN(C)C(=O)[C@H](CC2CCCCC2)N(C)C(=O)[C@@H]2CCN2C(=O)[C@@H]2CCN2C1=O [Compound 318] ([NMeL]I[Aze][Aze][NMeCha][Sar][hPhe(3-Cl-4-CF3)]P[Ac5c][NMeV][NMeD]-Piperidide; lactam N-11) | 0.019 µM | > 0.5 µM
CC[C@H](C)[C@@H]1NC(=O)[C@H](CC(C)C)N(C)C(=O)C[C@@H](C(=O)N2CCCCC2)N(C)C(=O)[C@H](C(C)C)N(C)C(=O)C2(CCCCC2)NC(=O)[C@@H]2CCCN2C(=O)[C@H](CCc2ccc(C(F)(F)F)c(Cl)c2)NC(=O)CN(C)C(=O)[C@H](CC2CCCCC2)N(C)C(=O)[C@@H]2CCN2C(=O)[C@H](C)N(C)C1=O [Compound 1708] ([NMeL]I[NMeA][Aze][NMeCha][Sar][hPhe(3-Cl-4-CF3)]P[Ac6c][NMeV][NMeD]-Piperidide; lactam N-11) | 0.01 µM | > 0.5 µM
CC[C@H](C)[C@@H]1NC(=O)[C@H](CC(C)C)N(C)C(=O)C[C@@H](C)NC(=O)[C@H](C(C)C)N(C)C(=O)[C@H](Cc2ccccc2)N(C)C(=O)[C@H](CC(C)C)N(C)C(=O)[C@H](CCc2ccc(C(F)(F)F)cc2)NC(=O)CN(C)C(=O)[C@H](Cc2ccc(Cl)cc2)N(C)C(=O)CN(C)C(=O)CN(C)C1=O [Compound 124] (cyclo(I[Sar][Sar][NMePhe(4-Cl)][Sar][hPhe(4-CF3)][NMeL][NMeF][NMeV][d(β3hA)][NMeL])) | 0.14 µM | > 0.5 µM
C=CCOC(=O)NCCCC[C@@H]1NC(=O)[C@H](CCc2ccc(C(F)(F)F)cc2)NC(=O)CN(C)C(=O)[C@H](Cc2ccc(Cl)cc2)N(C)C(=O)CN(C)C(=O)CN(C)C(=O)[C@H]([C@@H](C)CC)NC(=O)[C@H](CC(C)C)N(C)C(=O)C[C@@H](C)N(C)C(=O)[C@H](CC(C)C)NC(=O)C(C)(C)N(C)C1=O [Compound 12] (cyclo(I[Sar][Sar][NMePhe(4-Cl)][Sar][hPhe(4-CF3)]K(Alloc)[NMeAib]L[NMedβ3hAla][NMeL])) | 0.24 µM | > 0.5 µM
CC[C@H](C)[C@@H]1NC(=O)[C@H](CCC(C)C)N(C)C(=O)C[C@@H](C(=O)N(C)C)N(C)C(=O)[C@H]([C@@H](C)CC)N(C)C(=O)C2(CCCC2)NC(=O)[C@@H]2CCCN2C(=O)[C@H](CCc2ccc(C(F)(F)F)c(Cl)c2)NC(=O)CN(C)C(=O)[C@H](Cc2ccc(C)cc2)N(C)C(=O)[C@@H]2CCN2C(=O)[C@H](C)NC1=O [Compound 308] ([NMehLeu]IA[Aze][NMePhe(4-Me)][Sar][hPhe(3-Cl-4-CF3)]P[Ac5c][NMeI][NMeD]-NMe2; lactam N-11) | 0.00093 µM | ≤ 0.02 µM
CC[C@H](C)[C@@H]1NC(=O)[C@H](C)N(C)C(=O)C[C@@H](C(=O)N2CCCCC2)N(C)C(=O)[C@H](C(C)C)N(C)C(=O)C(C)(C)N(C)C(=O)[C@@H]2CCCN2C(=O)[C@H](CCc2ccc(C(F)(F)F)c(Cl)c2)NC(=O)CN(C)C(=O)[C@H](CC2CCCCC2)N(C)C(=O)[C@@H]2CCN2C(=O)[C@H](C)N(C)C1=O [Compound 1034] ([NMeA]I[NMeA][Aze][NMeCha][Sar][hPhe(3-Cl-4-CF3)]P[NMeAib][NMeV][NMeD]-Piperidide; lactam N-11) | 0.0017 µM | > 0.5 µM
